In patent publication US4213983A, “Treating gastro-intestinal disorders and emesis with n-(heterocyclic substituted) benzamides” (Beecham Group Limited, priority 1976, dated 1980):

Legend:
[1] = test system: emetic response to apomorphine hydrochloride; assay: Abolition of the emetic response to apomorphine hydrochloride; format: in vivo; details: Canis lupus familiaris, sc; S.C.; dog; apomorphine hydrochloride 0.1 mg/kg subcutaneously; active doses (mg/kg); read-out: Anti-Emetic ED 50
Protocol: 2. Compounds were also tested for abolition of the emetic response to apomorphine hydrochloride (0.1 mg/kg subcutaneously) in the dog

intragastric pressure = assay: Increase in intragastric pressure; format: in vivo, rat; details: conscious restrained rats with gastric fistula, 40 minutes after administration, active doses (mg/kg)
Protocol: (§1) 1. Compounds prepared in the Examples were tested for the following pharmacological activities in the rat:
(a) Increase in intragastric pressure
Intragastric pressure changes were recorded from previously starved conscious and restrained rats using a saline filled catheter inserted into the lumen of the stomach via a permanent gastric fistula. The catheter was connected to a physiological pressure transducer and pressure changes recorded on a hot wire pen recorder. In each animal a pre-dose period of 40 minutes was allowed to obtain a measure of spontaneous activity. An index of activity was obtained by measuring the average height of pressure waves during 10 minute periods. Values for 4 such periods were obtained during assessment of spontaneous activity and for the 40 minute period after the administration of the Compounds. Student "t" test was applied to the difference in average values obtained for spontaneous and post Compound activity.

dopamine receptor = assay: Inhibition of stereotype behaviour induced by apomorphine; format: in vivo, rat; details: for Inhibition of Stereo-Type Behaviour, active dose: S.C., rat, active doses (mg/kg); for Inhibition of Stereo-Type Behaviour, number of rats: at 50mg S.C.
Protocol: as §1
(c) Inhibition of stereotype behaviour induced by apomorphine.
This is indicative of dopamine receptor blockade in the central nervous system.
The method of Ernst A. M. (1967) Pyschopharmocologia (Berl.) 10 pp. 316-323 was followed.

[2] = test system: apomorphine induced delay in gastric emptying; assay: Increase in gastric emptying - reversal of apomorphine induced delay in gastric emptying of a test meal; format: in vivo, rat; details: S.C.; rats with chronic gastric fistula; Apomorphine HCl 5 mg/kg subcutaneously 15 minutes prior; active doses (mg/kg)
Protocol: as §1
(b) Increase in gastric emptying-reversal of apomorphine induced delay in gastric emptying of a test meal.
Rats equipped with chronic gastric fistula were used and it was through this that 5 ml of a test meal (5 ml phosphate buffer at pH 9) was administered and recovered. The % recovery of the standard meal after remaining in the stomach for 10 minutes was taken as an index of gastric emptying. Delay in gastric emptying was induced by the administration of Apomorphine HCl (5 mg/kg subcutaneously) and was given 15 minutes prior to the administration of the Compound. The % recoveries of the test meal was determined at 15-25 and 45-55 minutes post dosing with the Compound and compared with vehicle only dosed animals set up simultaneously. Six animals were used for each group.

Row | SMILES | ED50 [1] [mg/kg] | Increase in Intra-Gastric Pressure, active dose (intragastric pressure; P.O.) [mg] | Increase in Intra-Gastric Pressure, active dose (intragastric pressure; S.C.) [mg] | Inhibition of Stereo-Type Behaviour, active dose (dopamine receptor) [mg] | Increase in Gastric Emptying, active dose [2] [mg] | Inhibition of Stereo-Type Behaviour, number of rats (dopamine receptor)
1 | COc1cc(N)c(Cl)cc1C(=O)NC1CCN2CCCCC2C1 (stereo not drawn) [Example 2, 4-Amino-5-chloro-2-methoxy-N-(2-quinolizidinyl)-benzamide] | 0.7 | 50 | 2.5 | 15 | 25 | 
2 | COc1cc(N)c(Cl)cc1C(=O)NC1CCN2CCCC2C1 (stereo not drawn) [Example 4, 4-Amino-5-chloro-2-methoxy-N-(7-octahydro-indolizinyl)-benzamide] | < 2 |  | 5 | 50 | 50 | 4 out of 7 rats
3 | COc1cc(N)c(Cl)cc1C(=O)NC1CCC2CCCCN2C1 (stereo not drawn) [Example 6, 4-Amino-5-chloro-2-methoxy-N-(3-quinolizidinyl)-benzamide] | 1.4 |  |  | 50 |  | 3 out of 7 rats
4 | COc1cc(N)c(Cl)cc1C(=O)NC1CCCN2CCCCC12 (stereo not drawn) [Example 8b, 4-Amino-5-chloro-2-methoxy-N-(1-quinolizidinyl)-benzamide] | < 2 |  |  | 50 |  | 
5 | COc1cc(N)c(Cl)cc1C(=O)NC1CCN2CCc3ccccc3C2C1 (stereo not drawn) [Example 10, 4-Amino-5-chloro-N-[2-(2H-benzo[a]-quinolizine-1,3,4,6,7,11b-hexahydro)]-2-methoxy-benzamide] |  |  |  |  | 50 | 
6 | COc1cc(N)c(Cl)cc1C(=O)NN1CCN2CCCCC2C1 (stereo not drawn) [Example 12] | 2 |  |  |  |  | 
7 | COc1cc(N)c(Cl)cc1C(=O)NC1CC2CCCCN2C1 (stereo not drawn) [Example 14, 4-Amino-5-chloro-2-methoxy-N-(2-octahydroindolizinyl)-benzamide] | < 2 |  |  | 50 | 50 | 
8 | COc1cc(N)c(Cl)cc1C(=O)NC1CCN2C(C)CCCC2C1 (stereo not drawn) [Example 16, 4-Amino-5-chloro-2-methoxy-N-(6-methyl-2-quinolizidinyl)-benzamide] |  |  | 1 |  |  | 
